The assay deals with LepRb-HDAC6 interaction (Mus musculus (Mouse), UniProt Q9Z2V5). As to the kind of experiment: LepRb-flag / HDAC6-myc co-immunoprecipitation in HEK293 cells. It is filed as cell-based. Particulars: 200 nM for 1 h. How it is done:
It was hypothesized that HDAC6 might interact with leptin receptor b (LepRb). To test this hypothesis, HEK293 cells were transfected with GFP or HDAC6-myc or LepRb-flag or LepRb-flag and HDAC6-myc expressing plasmids. Subsequently, cells were treated either with vehicle or HDAC6 inhibitor (ACY775) (200 nM for 1 h). Then Flag immunoprecipitation was performed to pull down LepRb and subsequently immunoblot these immune-precipitates with Myc and Flag antibodies.
HEK293 cells were transfected with GFP (as control) or HDAC6 or LepRb or LepRb and HDAC6 together. Subsequently cells were either treated with vehicle or HDAC6 inhibitor (ACY775) (200 nM for 1 h). Flag immunoprecipitation was used to pull down LepRb, followed by Myc and Flag immunoblotting.

LepRb-HDAC6 interaction, sequence (Q9Z2V5 whole entry): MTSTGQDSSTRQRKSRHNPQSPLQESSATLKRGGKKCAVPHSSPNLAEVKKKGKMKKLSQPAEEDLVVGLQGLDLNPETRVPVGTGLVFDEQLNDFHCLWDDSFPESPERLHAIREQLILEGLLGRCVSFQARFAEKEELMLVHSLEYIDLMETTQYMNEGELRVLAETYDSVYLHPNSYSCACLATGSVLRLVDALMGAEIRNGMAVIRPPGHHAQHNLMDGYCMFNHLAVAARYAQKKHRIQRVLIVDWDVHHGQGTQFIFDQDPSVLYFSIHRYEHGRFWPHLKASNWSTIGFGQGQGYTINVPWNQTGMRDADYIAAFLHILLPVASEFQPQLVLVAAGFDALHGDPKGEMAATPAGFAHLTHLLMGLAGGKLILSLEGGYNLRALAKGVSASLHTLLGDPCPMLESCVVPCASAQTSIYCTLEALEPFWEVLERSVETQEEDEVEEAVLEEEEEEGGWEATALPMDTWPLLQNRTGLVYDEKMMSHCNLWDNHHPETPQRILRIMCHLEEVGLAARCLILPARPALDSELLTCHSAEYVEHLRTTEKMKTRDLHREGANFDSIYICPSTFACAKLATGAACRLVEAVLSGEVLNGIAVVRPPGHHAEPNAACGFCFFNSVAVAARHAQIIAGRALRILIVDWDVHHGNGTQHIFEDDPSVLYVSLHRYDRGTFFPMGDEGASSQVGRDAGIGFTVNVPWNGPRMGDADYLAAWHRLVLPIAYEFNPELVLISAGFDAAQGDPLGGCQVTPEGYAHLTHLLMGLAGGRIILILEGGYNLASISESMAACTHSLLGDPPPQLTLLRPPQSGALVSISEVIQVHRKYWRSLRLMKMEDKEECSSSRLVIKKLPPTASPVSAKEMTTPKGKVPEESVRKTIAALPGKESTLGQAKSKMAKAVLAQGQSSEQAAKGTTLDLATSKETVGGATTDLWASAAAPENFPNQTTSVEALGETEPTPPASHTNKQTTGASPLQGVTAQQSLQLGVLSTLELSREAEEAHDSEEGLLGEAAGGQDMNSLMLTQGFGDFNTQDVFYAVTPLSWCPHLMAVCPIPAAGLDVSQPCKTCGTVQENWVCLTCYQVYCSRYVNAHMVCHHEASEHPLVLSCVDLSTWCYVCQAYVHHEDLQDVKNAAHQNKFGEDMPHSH

On to `O=C(NO)c1cnc(NC2(c3cccc(F)c3)CCCCC2)nc1` [ACY775, 2-[[1-(3-fluorophenyl)cyclohexyl]amino]-N-hydroxy-5-pyrimidinecarboxamide], for which the “HDAC6 interaction with LepRb” value is recorded as “blocks this interaction”.

The values above are taken from patent US20240252496A1, “SELECTIVE HYPOTHALAMUS PERMEABLE HDAC6 INHIBITORS FORTREATMENT OF LEPTIN-RESISTANT OBESITY” (The Children’s Medical Center Corporation, priority 2022, published 2024).
